Reference: patent EP0640600A1, “Heterocyclylbenzoheterocycles” (BAYER AG, priority 1993, dated 1995)

Legend:
[1] = system: Kulturpflanzen, wie z.B. Weizen und Soja; details: in vivo
Source text: (§1) Lösungsmittel: 5 Gewichtsteile Aceton Emulgator: 1 Gewichtsteil Alkylarylpolyglykolether Zur Herstellung einer zweckmäßigen Wirkstoffzubereitung vermischt man 1 Gewichtsteil Wirkstoff mit der angegebenen Menge Lösungsmittel, gibt die angegebene Menge Emulgator zu und verdünnt das Konzentrat mit Wasser auf die gewünschte Konzentration.
(§2) Mit der Wirkstoffzubereitung spritzt man Testpflanzen, welche eine Höhe von 5 - 15 cm haben so, daß die jeweils gewünschten Wirkstoffmengen pro Flächeneinheit ausgebracht werden. Nach drei Wochen wird der Schädigungsgrad der Pflanzen bonitiert in % Schädigung im Vergleich zur Entwicklung der unbehandelten Kontrolle.

Unkräuter = assay: Post-emergence test, herbicidal action on weeds; assay type: in vivo; details: test plants 5 - 15 cm high sprayed, damage rated after three weeks vs untreated control, application rate not given
Source text: as §1, §2

- Verträglichkeit gegenüber Kulturpflanzen, wie z.B. Weizen und Soja [1]: teilweise guter Verträglichkeit
Structure (SMILES): CCCN1C(=O)COc2cc(F)c(-n3c(=O)nc(OCC)n(C)c3=O)cc21 [Beispiel 2, 3-(7-Fluor-3-oxo-4-propyl-1,4-benzoxazin-6-yl)-6-ethoxy-1-methyl-(1H,3H)-1,3,5-triazin-2,4-dion]
- Wirkung gegen Unkräuter (Unkräuter): starke Wirkung
